Several values for one entry are separate records, joined by “and”; a condition that tells them apart may be missing. Equal entries are not always repeated.
Legend:
Type in all cases: cell-based, human
[1] = test system: non-senescent control IMR90 ER:RAS cells; assay: Nuclei count (Hoechst, high content imaging) senolytic assay, OIS model, non-senescent control cells; details: for Mean % Cell Survival: mean n=3 (Fig 3C)
Outline: (§1)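 Compared non-senescent and senescent IMR90 ER:RAS cultures (senescence induced with 4-OHT at 100 nM final); cells seeded 24 h before dosing, then exposed 72 h to compounds, 10-point […] range 10 μM–10 nM, triplicate. Fixed, Hoechst-stained, nuclei counted by high-content imaging; drop versus untreated reflects cell death.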

[2] = test system: senescent IMR90 ER:RAS cells (4-OHT-induced); assay: Nuclei count (Hoechst, high content imaging) senolytic assay, oncogene-induced senescence (OIS) model, senescent cells; details: for Mean % Cell Survival: mean n=3 (Fig 3C)
Outline: as §1

[3] = test system: non-senescent control A549 cells; assay: Nuclei count senolytic assay, TIS model, non-senescent control cells; details: Control cells, mean
Outline: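 A549 cells made senescent with 100 μM etoposide for 48 h then 3 days in normal media; non-senescent A549 as control. Cells were exposed for 72 h to a 10-point […] range (10 μM–10 nM) in triplicate, then fixed, Hoechst-stained and imaged for nuclei count.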

## CC(C)=CCc1c(O)cc2oc3cc(O)c(O)c(CC=C(C)C)c3c(=O)c2c1O [Gamma mangostin, gamma mangostin]
[1]; Control cells, log (dose) [M] -5, individual replicates, SUP FIG 4C
  % Cell Survival: 83.3507% and 108.05% and 79.5367% and 95.8097%
[1]; Control cells, log (dose) [M] -5.33, individual replicates, SUP FIG 4C
  % Cell Survival: 87.0968% and 96.0317% and 81.9498% and 89.128%
[1]; Control cells, log (dose) [M] -5.66, individual replicates, SUP FIG 4C
  % Cell Survival: 85.64% and 147.846% and 85.3282% and 103.058%
[1]; Control cells, log (dose) [M] -6, individual replicates, SUP FIG 4C
  % Cell Survival: 61.4984% and 93.424% and 84.0734% and 96.1495%
[1]; Control cells, log (dose) [M] -6.33, individual replicates, SUP FIG 4C
  % Cell Survival: 89.5942% and 95.6916% and 116.216% and 74.9717%
[1]; Control cells, log (dose) [M] -6.66, individual replicates, SUP FIG 4C
  % Cell Survival: 89.282% and 97.3923% and 91.7954% and 95.8097%
[1]; Control cells, log (dose) [M] -7, individual replicates, SUP FIG 4C
  % Cell Survival: 92.924% and 97.5057% and 90.1544% and 99.6602%
[1]; Control cells, log (dose) [M] -7.33, individual replicates, SUP FIG 4C
  % Cell Survival: 93.7565% and 97.2789% and 93.4363% and 109.513%
[1]; Control cells, log (dose) [M] -7.66, individual replicates, SUP FIG 4C
  % Cell Survival: 96.9823% and 99.8866% and 98.9382% and 108.494%
[1]; Control cells, log (dose) [M] -8, individual replicates, SUP FIG 4C
  % Cell Survival: 107.7% and 97.0522% and 93.3398% and 109.173%
[1]; Control, log (dose) [M] -5, 72 h
  Mean % Cell Survival: 91.6867%
[1]; Control, log (dose) [M] -5.33, 72 h
  Mean % Cell Survival: 88.5516%
[1]; Control, log (dose) [M] -5.66, 72 h
  Mean % Cell Survival: 105.468%
[1]; Control, log (dose) [M] -6, 72 h
  Mean % Cell Survival: 83.7863%
[1]; Control, log (dose) [M] -6.33, 72 h
  Mean % Cell Survival: 94.1184%
[1]; Control, log (dose) [M] -6.66, 72 h
  Mean % Cell Survival: 93.5698%
[1]; Control, log (dose) [M] -7, 72 h
  Mean % Cell Survival: 95.0611%
[1]; Control, log (dose) [M] -7.33, 72 h
  Mean % Cell Survival: 98.4962%
[1]; Control, log (dose) [M] -7.66, 72 h
  Mean % Cell Survival: 101.075%
[1]; Control, log (dose) [M] -8, 72 h
  Mean % Cell Survival: 101.816%
[1]; Control, log (dose) [M] -5
  % Cell Survival: 92.5926% and 96.693% and 91.9267%
[1]; Control, log (dose) [M] -5.33
  % Cell Survival: 94.2308% and 86.4127% and 82.768%
[1]; Control, log (dose) [M] -5.66
  % Cell Survival: 90.6695% and 83.6808% and 81.9539%
[1]; Control, log (dose) [M] -6
  % Cell Survival: 85.6125% and 87.1316% and 81.6147%
[1]; Control, log (dose) [M] -6.33
  % Cell Survival: 95.7977% and 84.3997% and 85.8209%
[1]; Control, log (dose) [M] -6.66
  % Cell Survival: 91.7379% and 85.9813% and 84.5319%
[1]; Control, log (dose) [M] -7
  % Cell Survival: 95.6553% and 92.739% and 90.502%
[1]; Control, log (dose) [M] -7.33
  % Cell Survival: 96.8661% and 91.0137% and 90.4342%
[1]; Control, log (dose) [M] -7.66
  % Cell Survival: 96.7236% and 96.7649% and 94.3691%
[1]; Control, log (dose) [M] -8
  % Cell Survival: 100.783% and 103.882% and 95.7938%
[2]; Senescent cells, log (dose) [M] -5, individual replicates, SUP FIG 4C
  % Cell Survival: 68.9759% and 85.4054% and 104.1% and 60.479%
[2]; Senescent cells, log (dose) [M] -5.33, individual replicates, SUP FIG 4C
  % Cell Survival: 98.1928% and 112.613% and 125.668% and 83.9521%
[2]; Senescent cells, log (dose) [M] -5.66, individual replicates, SUP FIG 4C
  % Cell Survival: 81.0241% and 178.198% and 139.216% and 80.9581%
[2]; Senescent cells, log (dose) [M] -6, individual replicates, SUP FIG 4C
  % Cell Survival: 64.6084% and 123.964% and 135.651% and 83.2335%
[2]; Senescent cells, log (dose) [M] -6.33, individual replicates, SUP FIG 4C
  % Cell Survival: 91.7169% and 121.982% and 131.907% and 40.8383%
[2]; Senescent cells, log (dose) [M] -6.66, individual replicates, SUP FIG 4C
  % Cell Survival: 78.1627% and 116.757% and 113.904% and 77.1257%
[2]; Senescent cells, log (dose) [M] -7, individual replicates, SUP FIG 4C
  % Cell Survival: 99.8494% and 112.432% and 120.856% and 67.0659%
[2]; Senescent cells, log (dose) [M] -7.33, individual replicates, SUP FIG 4C
  % Cell Survival: 98.3434% and 101.081% and 114.082% and 90.8982%
[2]; Senescent cells, log (dose) [M] -7.66, individual replicates, SUP FIG 4C
  % Cell Survival: 107.681% and 108.829% and 116.934% and 93.4132%
[2]; Senescent cells, log (dose) [M] -8, individual replicates, SUP FIG 4C
  % Cell Survival: 107.53% and 115.315% and 113.725% and 84.9102%
[2]; Senescent, log (dose) [M] -5, 72 h
  Mean % Cell Survival: 79.74%
[2]; Senescent, log (dose) [M] -5.33, 72 h
  Mean % Cell Survival: 105.106%
[2]; Senescent, log (dose) [M] -5.66, 72 h
  Mean % Cell Survival: 119.849%
[2]; Senescent, log (dose) [M] -6, 72 h
  Mean % Cell Survival: 101.864%
[2]; Senescent, log (dose) [M] -6.33, 72 h
  Mean % Cell Survival: 96.6111%
[2]; Senescent, log (dose) [M] -6.66, 72 h
  Mean % Cell Survival: 96.4872%
[2]; Senescent, log (dose) [M] -7, 72 h
  Mean % Cell Survival: 100.051%
[2]; Senescent, log (dose) [M] -7.33, 72 h
  Mean % Cell Survival: 101.101%
[2]; Senescent, log (dose) [M] -7.66, 72 h
  Mean % Cell Survival: 106.714%
[2]; Senescent, log (dose) [M] -8, 72 h
  Mean % Cell Survival: 105.37%
[2]; Senescent, log (dose) [M] -5
  % Cell Survival: 105.907% and 101.805% and 105.566%
[2]; Senescent, log (dose) [M] -5.33
  % Cell Survival: 105.42% and 104.907% and 107.486%
[2]; Senescent, log (dose) [M] -5.66
  % Cell Survival: 112.424% and 103.215% and 110.173%
[2]; Senescent, log (dose) [M] -6
  % Cell Survival: 104.019% and 94.1906% and 105.054%
[2]; Senescent, log (dose) [M] -6.33
  % Cell Survival: 116.322% and 101.974% and 111.9%
[2]; Senescent, log (dose) [M] -6.66
  % Cell Survival: 112.85% and 97.8003% and 108.125%
[2]; Senescent, log (dose) [M] -7
  % Cell Survival: 120.95% and 109.419% and 113.308%
[2]; Senescent, log (dose) [M] -7.33
  % Cell Survival: 110.231% and 111.901% and 120.282%
[2]; Senescent, log (dose) [M] -7.66
  % Cell Survival: 99.6955% and 109.475% and 108.701%
[2]; Senescent, log (dose) [M] -8
  % Cell Survival: 101.705% and 108.629% and 104.99%
[3]; log (dose) [M] -5
  Mean % Cell Survival: 93.7374%
[3]; log (dose) [M] -5.33
  Mean % Cell Survival: 87.8038%
[3]; log (dose) [M] -5.66
  Mean % Cell Survival: 85.4347%
[3]; log (dose) [M] -6
  Mean % Cell Survival: 84.7862%
[3]; log (dose) [M] -6.33
  Mean % Cell Survival: 88.6728%
[3]; log (dose) [M] -6.66
  Mean % Cell Survival: 87.417%
[3]; log (dose) [M] -7
  Mean % Cell Survival: 92.9654%
[3]; log (dose) [M] -7.33
  Mean % Cell Survival: 92.7713%
[3]; log (dose) [M] -7.66
  Mean % Cell Survival: 95.9525%
[3]; log (dose) [M] -8
  Mean % Cell Survival: 100.153%
